Patent US6608082B1, “Treatment of erectile dysfunction using isoquinoline compound melanocortin receptor ligands” (Lion Bioscience AG, priority 1998, dated 2003)
pIC50: −log10 of the molar value. Like-named read-outs stand apart in the source and are kept apart here.

Legend:
MCR-1 = molecular target: T1, MCR-1 (Homo sapiens, UniProt Q01726); assay: Melanocortin receptor binding assay, competition with 125I-HP 467, HEK 293 cells expressing hMCR-1; settings: inhibition of binding of 125I-HP 467, HEK 293 cells expressing MCR-1; for pIC50: read-out: MC-1 IC50
T1 construct: expressed in transfected cells; host or cells: HEK 293
In short: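 Test compounds compete on intact HEK 293 cells carrying hMCR-1 (2×10^4 per tube) or hMCR-4 (4×10^3 per tube), suspended in PBS, 10% calf serum, 1 mM CaCl2.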

MCR-4 = molecular target: T2, MCR-4 (Homo sapiens, UniProt P32245); assay: Melanocortin receptor binding assay, competition with 125I-HP 467, HEK 293 cells expressing hMCR-4; settings: inhibition of binding of 125I-HP 467, HEK 293 cells expressing MCR-4; for pIC50: read-out: MC-4 IC50
T2 construct: expressed in transfected cells; host or cells: HEK 293
Method: All cell culture media and reagents were obtained from GibcoBRL (Gaithersburg Md.), except for COSMIC CALF SERUM (HyClone; Logan Utah).
Cells were suspended in PBS, 10% COSMIC CALF SERUM and 1 mM CaCl2. Cell suspensions were prepared at a density of 2×10^4 cells/ml for HEK 293 cells expressing hMCR-3, hMCR-4 or hMCR-5, and 1×10^5 cells/ml for HEK 293 cells expressing hMCR-1. Suspensions were placed in a water bath and allowed to warm to 37° C. for 1 hr.
Binding assays were performed in a total volume of 250 μl for HEK 293 cells. […] To each tube was added 4×10^3 HEK 293 cells expressing hMCR-3, hMCR-4 or hMCR-5, or 2×10^4 cells expressing hMCR-1. Assays were incubated for 2.5 hr at 37° C.
GF/B filter plates were prepared by soaking for at least one hour in 5 mg/ml BSA and 10 mM CaCl2. Assays were filtered using a Brandel 96-well cell harvester (Brandel Inc.; Gaithersburg, Md.). The filters were washed four times with cold 50 mM Tris, pH 7.4, the filter plates were dehydrated for 2 hr and 35 μl of MICROSCINT was added to each well. Filter plates were counted using a Packard Topcount (Packard Instrument Co.) and data analyzed using GraphPad PRISM v2.0 (GraphPad Software Inc.; San Diego Calif.) and Microsoft EXCEL v5.0a (Microsoft Corp.; Redmond Wash.).
To assay isoquinoline compounds, binding assays were performed in duplicate in a 96 well format. […] A 0.2 ml aliquot of suspended cells was added to each well to give the cell numbers indicate above, and the cells were incubated at 37° C. for 2.5 hr. Cells were harvested on GF/B filter plates as described above and counted.

T2 sequence (P32245 whole entry): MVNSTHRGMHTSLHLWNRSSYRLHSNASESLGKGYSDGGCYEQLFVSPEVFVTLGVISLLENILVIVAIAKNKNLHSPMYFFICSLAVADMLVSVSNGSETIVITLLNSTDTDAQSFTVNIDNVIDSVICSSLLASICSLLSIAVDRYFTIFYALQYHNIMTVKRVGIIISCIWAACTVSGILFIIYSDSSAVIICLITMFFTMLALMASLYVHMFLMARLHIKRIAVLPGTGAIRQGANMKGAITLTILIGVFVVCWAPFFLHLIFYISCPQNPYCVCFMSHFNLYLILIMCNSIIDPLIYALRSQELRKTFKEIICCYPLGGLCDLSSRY
T1 sequence (Q01726 whole entry): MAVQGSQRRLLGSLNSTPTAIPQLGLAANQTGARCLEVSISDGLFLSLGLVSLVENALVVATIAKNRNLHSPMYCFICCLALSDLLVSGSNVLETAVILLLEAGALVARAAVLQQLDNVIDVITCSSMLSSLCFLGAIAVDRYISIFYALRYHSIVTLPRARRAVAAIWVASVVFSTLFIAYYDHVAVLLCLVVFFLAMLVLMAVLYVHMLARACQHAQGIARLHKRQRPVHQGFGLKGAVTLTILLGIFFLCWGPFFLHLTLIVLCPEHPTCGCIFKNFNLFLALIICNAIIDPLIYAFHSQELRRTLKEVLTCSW

| SMILES | pIC50 (MCR-1; TRG 2414 library) | pIC50 (MCR-4; TRG 2414 library) | also measured |
| --- | --- | --- | --- |
| CCNc1ccc(C2C(CN)c3ccccc3CN2CCC[C@@H](CN)NCCCCOc2ccccc2)cc1 (some centres unmarked) [2424#2] |  |  | pIC50 (MCR-1): 7.30; pIC50 (MCR-4): 5.11 |
| CCNc1ccc(C2C(CNCCc3ccccc3)c3ccccc3CN2CCC[C@@H](CN)NCCCCOc2ccccc2)cc1 (some centres unmarked) [2424#5] |  |  | pIC50 (MCR-1): 7.30; pIC50 (MCR-4): 5.82 |
| CCNc1ccc(C2C(CN)c3ccccc3CN2CCCC[C@@H](CN)NCCCCOc2ccccc2)cc1 (some centres unmarked) [2424#8] |  |  | pIC50 (MCR-1): 6.66; pIC50 (MCR-4): 5.29 |
| CCNc1ccc(C2C(CNCCc3ccccc3)c3ccccc3CN2CCCC[C@@H](CN)NCCCCOc2ccccc2)cc1 (some centres unmarked) [2424#11] |  |  | pIC50 (MCR-1): 6.68; pIC50 (MCR-4): 5.45 |
| CCCOc1ccc(C2C(CNCCc3ccc(OC)cc3)c3ccccc3CN2CCCCC(N)CN)cc1 (centres unmarked) [Cmpd 185] | 6.27 | 5.37 |  |
| CCCOc1ccc(C2C(CNCCc3ccc(OC)cc3)c3ccccc3CN2CCCCC(CN)NCCc2ccccc2)cc1 (centres unmarked) [Cmpd 186] | 5.55 | 5.09 |  |
| CCCOc1ccc(C2C(CNCCc3ccc(OC)cc3)c3ccccc3CN2CCCCC(CN)NCc2ccccc2)cc1 (centres unmarked) [Cmpd 187] | 5.97 | 5.83 |  |
| CCCOc1ccc(C2C(CNCCc3ccc(OC)cc3)c3ccccc3CN2CCCCC(CN)NCC(C)c2ccc(CC(C)C)cc2)cc1 (centres unmarked) [Cmpd 188] | 5.10 | 4.70 |  |
| CCCOc1ccc(C2C(CNCc3ccccc3)c3ccccc3CN2CCCCC(N)CN)cc1 (centres unmarked) [Cmpd 189] | 6.06 | 5.64 |  |
| CCCOc1ccc(C2C(CNCc3ccccc3)c3ccccc3CN2CCCCC(CN)NCCc2ccccc2)cc1 (centres unmarked) [Cmpd 190] | 5.84 | 5.27 |  |
| CCCOc1ccc(C2C(CNCc3ccccc3)c3ccccc3CN2CCCCC(CN)NCc2ccccc2)cc1 (centres unmarked) [Cmpd 191] | 5.71 | 5.26 |  |
| CCCOc1ccc(C2C(CNC3CCCCCC3)c3ccccc3CN2CCCCC(N)CN)cc1 (centres unmarked) [Cmpd 193] | 5.79 | 5.18 |  |
| CCCOc1ccc(C2C(CNC3CCCCCC3)c3ccccc3CN2CCCCC(CN)NCCc2ccccc2)cc1 (centres unmarked) [Cmpd 194] | 5.41 | 5.29 |  |
| CCCOc1ccc(C2C(CNC3CCCCCC3)c3ccccc3CN2CCCCC(CN)NCc2ccccc2)cc1 (centres unmarked) [Cmpd 195] | 5.86 | 5.39 |  |
| CCCOc1ccc(C2C(CNC3CCCCCC3)c3ccccc3CN2CCCCC(CN)NCC(C)c2ccc(CC(C)C)cc2)cc1 (centres unmarked) [Cmpd 196] | 4.88 | 4.43 |  |
| CCCOc1ccc(C2C(CNC3CCCCC3)c3ccccc3CN2CCCCC(N)CN)cc1 (centres unmarked) [Cmpd 197] | 6.38 | 4.90 |  |
| CCCOc1ccc(C2C(CNC3CCCCC3)c3ccccc3CN2CCCCC(CN)NCCc2ccccc2)cc1 (centres unmarked) [Cmpd 198] | 5.52 | 5.43 |  |
| CCCOc1ccc(C2C(CNC3CCCCC3)c3ccccc3CN2CCCCC(CN)NCc2ccccc2)cc1 (centres unmarked) [Cmpd 199] | 5.89 | 5.29 |  |
| CCCOc1ccc(C2C(CNC3CCCCC3)c3ccccc3CN2CCCCC(CN)NCC(C)c2ccc(CC(C)C)cc2)cc1 (centres unmarked) [Cmpd 200] | 5.12 | 4.77 |  |
| NCC(N)CCCCN1Cc2ccccc2C(CNCc2ccccc2C(F)(F)F)C1c1ccccc1Br (centres unmarked) [Cmpd 201] |  |  | MC-1 IC50 (MCR-1; TRG 2414 library): no fit; MC-4 IC50 (MCR-4; TRG 2414 library): no fit |
| NCC(CCCCN1Cc2ccccc2C(CNCc2ccccc2C(F)(F)F)C1c1ccccc1Br)NCCc1ccccc1 (centres unmarked) [Cmpd 202] | 4.66 | 4.47 |  |
| NCC(CCCCN1Cc2ccccc2C(CNCc2ccccc2C(F)(F)F)C1c1ccccc1Br)NCc1ccccc1 (centres unmarked) [Cmpd 203] | 4.52 | 4.40 |  |
| CC(C)Cc1ccc(C(C)CNC(CN)CCCCN2Cc3ccccc3C(CNCc3ccccc3C(F)(F)F)C2c2ccccc2Br)cc1 (centres unmarked) [Cmpd 204] |  |  | MC-1 IC50 (MCR-1; TRG 2414 library): no fit; MC-4 IC50 (MCR-4; TRG 2414 library): no fit |
| CCOc1ccccc1CNCC1c2ccccc2CN(CCCCC(CN)NCCc2ccccc2)C1c1ccccc1Br (centres unmarked) [Cmpd 206] | 5.15 | 5.21 |  |
| CCOc1ccccc1CNCC1c2ccccc2CN(CCCCC(CN)NCc2ccccc2)C1c1ccccc1Br (centres unmarked) [Cmpd 207] | 5.11 | 5.19 |  |
| CCOc1ccccc1CNCC1c2ccccc2CN(CCCCC(CN)NCC(C)c2ccc(CC(C)C)cc2)C1c1ccccc1Br (centres unmarked) [Cmpd 208] | 4.46 | 4.68 |  |

| SMILES | pIC50 (MCR-1; TRG 2414 library) | pIC50 (MCR-4; TRG 2414 library) | also measured |
| --- | --- | --- | --- |
| COc1ccccc1CCNCC1c2ccccc2CN(CCCCC(N)CN)C1c1ccccc1Br (centres unmarked) [Cmpd 209] | 5.77 | 5.86 |  |
| COc1ccccc1CCNCC1c2ccccc2CN(CCCCC(CN)NCCc2ccccc2)C1c1ccccc1Br (centres unmarked) [Cmpd 210] | 5.43 | 5.35 |  |
| COc1ccccc1CCNCC1c2ccccc2CN(CCCCC(CN)NCc2ccccc2)C1c1ccccc1Br (centres unmarked) [Cmpd 211] | 5.45 | 5.38 |  |
| COc1ccccc1CCNCC1c2ccccc2CN(CCCCC(CN)NCC(C)c2ccc(CC(C)C)cc2)C1c1ccccc1Br (centres unmarked) [Cmpd 212] | 4.74 | 4.78 |  |
| NCC(N)CCCCN1Cc2ccccc2C(CNCCc2cccc(Cl)c2)C1c1ccccc1Br (centres unmarked) [Cmpd 213] | 5.19 | 5.69 |  |
| NCC(CCCCN1Cc2ccccc2C(CNCCc2cccc(Cl)c2)C1c1ccccc1Br)NCCc1ccccc1 (centres unmarked) [Cmpd 214] | 5.13 | 5.32 |  |
| NCC(CCCCN1Cc2ccccc2C(CNCCc2cccc(Cl)c2)C1c1ccccc1Br)NCc1ccccc1 (centres unmarked) [Cmpd 215] | 5.07 | 5.19 |  |
| CC(C)Cc1ccc(C(C)CNC(CN)CCCCN2Cc3ccccc3C(CNCCc3cccc(Cl)c3)C2c2ccccc2Br)cc1 (centres unmarked) [Cmpd 216] | 4.32 | 4.41 |  |
| COc1cccc(CNCC2c3ccccc3CN(CCCCC(N)CN)C2c2ccccc2Br)c1 (centres unmarked) [Cmpd 217] | 5.25 | 5.62 |  |
| COc1cccc(CNCC2c3ccccc3CN(CCCCC(CN)NCCc3ccccc3)C2c2ccccc2Br)c1 (centres unmarked) [Cmpd 218] | 5.09 | 4.96 |  |
| COc1cccc(CNCC2c3ccccc3CN(CCCCC(CN)NCc3ccccc3)C2c2ccccc2Br)c1 (centres unmarked) [Cmpd 219] | 4.99 | 5.02 |  |
| COc1cccc(CNCC2c3ccccc3CN(CCCCC(CN)NCC(C)c3ccc(CC(C)C)cc3)C2c2ccccc2Br)c1 (centres unmarked) [Cmpd 220] | 4.39 | 4.45 |  |
| COc1ccc(CNCC2c3ccccc3CN(CCCCC(N)CN)C2c2ccccc2Br)cc1 (centres unmarked) [Cmpd 221] | 5.18 | 5.74 |  |
| COc1ccc(CNCC2c3ccccc3CN(CCCCC(CN)NCCc3ccccc3)C2c2ccccc2Br)cc1 (centres unmarked) [Cmpd 222] | 5.30 | 5.32 |  |
| COc1ccc(CNCC2c3ccccc3CN(CCCCC(CN)NCc3ccccc3)C2c2ccccc2Br)cc1 (centres unmarked) [Cmpd 223] | 4.98 | 5.09 |  |
| COc1ccc(CNCC2c3ccccc3CN(CCCCC(CN)NCC(C)c3ccc(CC(C)C)cc3)C2c2ccccc2Br)cc1 (centres unmarked) [Cmpd 224] | 4.50 | 4.64 |  |
| COc1ccc(CCNCC2c3ccccc3CN(CCCCC(N)CN)C2c2ccccc2Br)cc1 (centres unmarked) [Cmpd 225] | 5.34 | 5.69 |  |
| COc1ccc(CCNCC2c3ccccc3CN(CCCCC(CN)NCCc3ccccc3)C2c2ccccc2Br)cc1 (centres unmarked) [Cmpd 226] | 5.29 | 5.47 |  |
| COc1ccc(CCNCC2c3ccccc3CN(CCCCC(CN)NCc3ccccc3)C2c2ccccc2Br)cc1 (centres unmarked) [Cmpd 227] | 5.35 | 5.43 |  |
| COc1ccc(CCNCC2c3ccccc3CN(CCCCC(CN)NCC(C)c3ccc(CC(C)C)cc3)C2c2ccccc2Br)cc1 (centres unmarked) [Cmpd 228] | 4.75 | 5.06 |  |
| NCC(N)CCCCN1Cc2ccccc2C(CNCc2ccccc2)C1c1ccccc1Br (centres unmarked) [Cmpd 229] | 5.06 | 5.89 |  |
| NCC(CCCCN1Cc2ccccc2C(CNCc2ccccc2)C1c1ccccc1Br)NCCc1ccccc1 (centres unmarked) [Cmpd 230] | 5.19 | 5.26 |  |
| NCC(CCCCN1Cc2ccccc2C(CNCc2ccccc2)C1c1ccccc1Br)NCc1ccccc1 (centres unmarked) [Cmpd 231] | 4.96 | 5.04 |  |
| CC(C)Cc1ccc(C(C)CNC(CN)CCCCN2Cc3ccccc3C(CNCc3ccccc3)C2c2ccccc2Br)cc1 (centres unmarked) [Cmpd 232] | 4.49 | 4.63 |  |
| NCC(N)CCCCN1Cc2ccccc2C(CNC2CCCCCC2)C1c1ccccc1Br (centres unmarked) [Cmpd 233] | 5.48 | 5.49 |  |
| NCC(CCCCN1Cc2ccccc2C(CNC2CCCCCC2)C1c1ccccc1Br)NCCc1ccccc1 (centres unmarked) [Cmpd 234] | 5.36 | 5.28 |  |
